# Results reported in US5656629A, “6-substituted pyrazolo (3,4-d)pyrimidin-4-ones and compositions and methods of use thereof” (Sanofi Winthrop, Inc., priority 1995, dated 1997).
# Columns and labels:
# [1] = test system: Spontaneously hypertensive rats (SHR); experiment: antihypertensive activity in conscious spontaneously hypertensive rats (mean arterial pressure); assay type: in vivo; conditions: Rattus norvegicus
# [2] = biological target: T1, cGMP-PDE V (Homo sapiens, UniProt O76074); experiment: cGMP-PDE V inhibition (isozyme isolated from cardiovascular tissue); assay type: biochemical, various animal species and man
# T1 construct: isolated from cardiovascular tissues (heart and aorta); from tissue; host or cells: cardiovascular tissues (heart and aorta)
# Description: The cGMP-PDE and other PDE isozymes were isolated from cardiovascular tissues (heart and aorta) of various animal species and man by anion-exchange and affinity chromatography as described by Silver et al., Sec. Messeng. Phos. […] Cyclic Nucleotide Res. 10:69-92.
# [3] = test system: Spontaneously hypertensive rats (SHR); experiment: antihypertensive activity in conscious spontaneously hypertensive rats (mean arterial pressure); assay type: in vivo; conditions: Rattus norvegicus, SHR iv; for ED25: 5 min, 5 min after dose, cumulative dosing, read-out: ED25, change in mean arterial pressure
# Procedure: After a 2 day recovery from surgery, three baseline blood pressure measurements were made at 5 min intervals in conscious SHR. Compounds to be tested or vehicle were then administered intravenously in a dose-dependent manner (0.3-10 mg base/kg) while arterial pressure was recorded continuously on a polygraph. The mean arterial pressure response was measured 5 minutes after the administration of each dose of the test compound and the next dose given in a cumulative dose fashion. The response to each dose of the test compound was calculated as the difference from the mean of the three baseline measurements.
# [4] = test system: Spontaneously hypertensive rats; experiment: reversal of nitroglycerin-induced tolerance in spontaneously hypertensive rats; assay type: in vivo, Spontaneously hypertensive rats (17-25 weeks of age); conditions: for Percent (%) Reversal of Nitroglycerin-induced Tolerance: iv pretreatment 5-10 min before nitroglycerin challenge
# Procedure: Spontaneously hypertensive rats (17-25 weeks of age) were made nitroglycerin tolerant by repeated administration of high doses of nitroglycerin (100 mg/kg, s.c., 3 times/day for 3 consecutive days). To confirm tolerance challenge doses of nitroglycerin were administered intravenously at doses ranging from 1-300 μg/kg and the maximum change in mean arterial pressure (MAP) for each dose was recorded. Groups of tolerant rats were pretreated with the compounds of the invention (tolerant pretreated group) or with vehicle (0.05N NaOH) (tolerant vehicle pretreated group) intravenously 5-10 minutes prior to administration of challenge doses of nitroglycerin. The administration of challenge doses of nitroglycerin to non-tolerant rats (the non-tolerant group) caused a dose-dependent decrease in MAP of between 10 to 40 mm Hg. […] The area under the dose-MAP curve was calculated for the non-tolerant group and for the tolerant vehicle pretreated group and the tolerant pretreated group. The percent reversal of nitrate-inducedtolerance was calculated as follows:
# Percent Reversal=(AUCtol-pretreated -AUCtol-veh)/(AUCnontol
# wherein: AUCnontol =the area under the dose-MAP curve for the non-tolerant group.
# AUCtol-veh =the area under the dose-MAP curve for the tolerant vehicle pretreated group.
# AUCtol-pretreated =the area under the dose-MAP curve for the tolerant pretreated group.
# The following table summarizes the results obtained from the testing of representative compounds of the invention.
smiles,measurement,setting,value
"CCc1nn(C2CCCC2)c2nc(Cc3ccccc3)[nH]c(=O)c12 [1(b), 1-cyclopentyl-3-ethyl-6-(phenylmethyl)-pyrazolo[3,4-d]pyrimdin-4-one]",change in vivo at 30 mg/kg,"[1]; SHR iv, 30 mg/kg",-29%
same,IC50,[2],10 nM
same,change in vivo at 1 mg/kg,[3]; 1 mg/kg,-15%
"CCc1[nH]n(C2CCCC2)c2nc(Cc3ccc(OC)cc3)nc(=O)c1-2 [Example 6, 1-cyclopentyl-3-ethyl-6-(4-methoxyphenylmethyl)pyrazolo[3,4-d]pyrimidin-4-one]",Percent (%) Reversal of Nitroglycerin-induced Tolerance,[4]; Dose 1.0 mg/kg,69%
same,Percent (%) Reversal of Nitroglycerin-induced Tolerance,[4]; Dose 3.0 mg/kg,140%
same,IC50,[2],23 nM
same,ED25,[3],8.4 mg/kg
same,change in vivo at 10 mg/kg,[3],-30%
"CCc1[nH]n(C2CCCC2)c2nc(Cc3ccc(O)cc3)nc(=O)c1-2 [Example 7, 1-cyclopentyl-3-ethyl-6-(4-hydroxyphenylmethyl)pyrazolo[3,4-d]pyrimidin-4-one]",Percent (%) Reversal of Nitroglycerin-induced Tolerance,[4]; Dose 0.3 mg/kg,46%
same,Percent (%) Reversal of Nitroglycerin-induced Tolerance,[4]; Dose 1.0 mg/kg,45%
same,IC50,[2],19 nM
same,ED25,[3],4.6 mg/kg
"CCc1[nH]n(C2CCCC2)c2nc(Cc3ccc(N)cc3)nc(=O)c1-2 [Example 26, 1-cyclopentyl-3-ethyl-6-(4-aminophenylmethyl)pyrazolo[3,4-d]pyrimidin-4-one]",change in vivo at 10 mg/kg,"[1]; SHR, 10 mg/kg, po",-56%
same,IC50,[2],8.7 nM
same,ED25,[3],4.2 mg/kg
same,change in vivo at 10 mg/kg,[3],-46%
"O=[N+]([O-])OCC(CO[N+](=O)[O-])O[N+](=O)[O-] [nitroglycerin, reference compound]",hypotensive response to nitroglycerin challenge,"[4]; tolerant vehicle pretreated group, 1-300 μg/kg iv",significant reduction of the hypotensive response
